The test system of this test is Candida albicans. Briefly: In vitro anti-fungal activity: minimum inhibitory concentration (m.i.c.) on agar plates. Format: cell-based. The conditions noted are these: geometrical mean of results against a panel of 12 strains of Candida albicans; agar plates incubated for 48 hours at 37°C.
As to `C=CC(C)C(O)(Cn1ccnc1)c1ccc(Cl)cc1Cl` (single isomer, unassigned) [Example 3a, 2-(2,4-Dichlorophenyl)-1-(1-imidazolyl)-3-methyl-pent-4-en-2-ol], the Mean m.i.c. was 18.0.

For `C=CC(C)C(O)(Cn1ccnc1)c1ccc(Cl)cc1Cl` (single isomer, unassigned) [Example 3b, 2-(2,4-Dichlorophenyl)-1-(1-imidazolyl)-3-methyl-pent-4-en-2-ol], the Mean m.i.c. came out at 11.0. `C=CCC(O)(Cn1ccnc1)c1ccc(Cl)cc1Cl` (stereo not shown) [Example 1, 2-(2,4-Dichlorophenyl)-1-(1-imidazolyl)-pent-4-en-2-ol]: the Mean m.i.c. is given as 22.0.

With `CCCC(O)(Cn1ccnc1)c1ccc(Cl)cc1Cl` (stereo not shown) [Example 2, 2-(2,4-Dichlorophenyl)-1-(1-imidazolyl)-pentan-2-ol], the Mean m.i.c. turned out to be 12.5. `CCC(C)C(O)(Cn1ccnc1)c1ccc(Cl)cc1Cl` (stereo not shown) [Example 4, 2-(2,4-Dichlorophenyl)-1-(1-imidazolyl)-3-methyl-pentan-2-ol] registered a Mean m.i.c. of 12.0.

As for `CCC(O)(Cn1ccnc1)c1ccc(Cl)cc1Cl` (stereo not shown) [Example 5, 2-(2,4-dichlorophenyl)-1-(1-imidazolyl)-butan-2-ol], the Mean m.i.c. is given as 21.0.

`CCCCC(O)(Cn1ccnc1)c1ccc(Cl)cc1Cl` (stereo not shown) [Example 6] gave a Mean m.i.c. of 3.8. In turn, `CC(C)(C)C(O)(Cn1ccnc1)c1ccc(Cl)cc1Cl` (stereo not shown) [Example 7] gave a Mean m.i.c. of 11.0. The figure for `CC(C)C(O)(Cn1ccnc1)c1ccc(Cl)cc1Cl` (stereo not shown) [Example 8] is 21.0; for `CCCCCC(O)(Cn1ccnc1)c1ccc(Cl)cc1Cl` (stereo not shown) [Example 9] it is 5.2; for `CCCCCCC(O)(Cn1ccnc1)c1ccc(Cl)cc1Cl` (stereo not shown) [Example 10, 2-(2,4-dichlorophenyl)-1-(1-imidazolyl)-octan-2-ol] it is 3.1.

`C=CCCC(O)(Cn1ccnc1)c1ccc(Cl)cc1Cl` (stereo not shown) [Example 11]: the Mean m.i.c. came out at 6.8. Take `OC(CC1CC1)(Cn1ccnc1)c1ccc(Cl)cc1Cl` (stereo not shown) [Example 15]: the Mean m.i.c. came to 6.3. `CC(C)CC(O)(Cn1ccnc1)c1ccc(Cl)cc1Cl` (stereo not shown) [Example 16] came in with a Mean m.i.c. of 5.6. For `C=CCCCC(O)(Cn1ccnc1)c1ccc(Cl)cc1Cl` (stereo not shown) [Example 17], the Mean m.i.c. was 8.4. The figure for `CC(C)CCC(O)(Cn1ccnc1)c1ccc(Cl)cc1Cl` (stereo not shown) [Example 18] is 3.8; for `CCCCCCCC(O)(Cn1ccnc1)c1ccc(Cl)cc1Cl` (stereo not shown) [Example 19] it is 5.6; for `CCCCC(O)(Cn1ccnc1)c1ccc(Cl)cc1` (stereo not shown) [Example 20, 2-(4-Chlorophenyl)-1-(1-imidazolyl)-hexan-2-ol] it is 38.0. Compound `CCCCC(O)(Cn1ccnc1)c1ccccc1Cl` (stereo not shown) [Example 21, 2-(2-Chlorophenyl)-1-(1-imidazolyl)-hexan-2-ol] yielded a Mean m.i.c. of 18.0.

(Values after patent EP0023103A1, “Antifungal imidazole derivatives, process for their preparation and pharmaceutical compositions thereof” (Pfizer Limited, priority 1979, dated 1981).)
